Test system: 616215-338-R-J1-PDC complex spheroid viability
Assay: Anticancer human tumor 616215-338-R-J1-PDC patient-derived colon adenocarcinoma cell line growth inhibition [POLQ]
Conditions: for IC50: curve of first compound; for viability, T/C: stronger effect = lower value
In short: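 Patient-derived tumour cells were co-cultured with HUVEC and mesenchymal stem cells as multicellular spheroids at 37 °C. They were treated with POLQ inhibitors (novobiocin, ART-558, RP6685) alone or combined with other agents. Top concentrations were at or near clinical Cmax (otherwise 10 microM; SN-38 at 1 microM), decreasing in half-log steps.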

[1] = second compound 0.0316 µM, first compound 0.0316 µM
[2] = second compound 0.0316 µM, first compound 0.1 µM
[3] = second compound 0.0316 µM, first compound 0.316 µM
[4] = second compound 0.0316 µM, first compound 1 µM
[5] = second compound 0.0316 µM, first compound 3.16 µM
[6] = second compound 0.0316 µM, first compound 10 µM
[7] = second compound 0.1 µM, first compound 0.0316 µM
[8] = second compound 0.1 µM, first compound 0.1 µM
[9] = second compound 0.1 µM, first compound 0.316 µM
[10] = second compound 0.1 µM, first compound 1 µM
[11] = second compound 0.1 µM, first compound 3.16 µM
[12] = second compound 0.1 µM, first compound 10 µM
[13] = second compound 0.316 µM, first compound 0.0316 µM
[14] = second compound 0.316 µM, first compound 0.1 µM
[15] = second compound 0.316 µM, first compound 0.316 µM
[16] = second compound 0.316 µM, first compound 1 µM
[17] = second compound 0.316 µM, first compound 3.16 µM
[18] = second compound 0.316 µM, first compound 10 µM
[19] = second compound 1 µM, first compound 0.0316 µM
[20] = second compound 1 µM, first compound 0.1 µM
[21] = second compound 1 µM, first compound 0.316 µM
[22] = second compound 1 µM, first compound 1 µM
[23] = second compound 1 µM, first compound 3.16 µM
[24] = second compound 1 µM, first compound 10 µM
[25] = second compound 3.16 µM, first compound 0.0316 µM
[26] = second compound 3.16 µM, first compound 0.1 µM
[27] = second compound 3.16 µM, first compound 0.316 µM
[28] = second compound 3.16 µM, first compound 1 µM
[29] = second compound 3.16 µM, first compound 3.16 µM
[30] = second compound 3.16 µM, first compound 10 µM
[31] = second compound 10 µM, first compound 0.0316 µM
[32] = second compound 10 µM, first compound 0.1 µM
[33] = second compound 10 µM, first compound 0.316 µM
[34] = second compound 10 µM, first compound 1 µM
[35] = second compound 10 µM, first compound 3.16 µM
[36] = second compound 10 µM, first compound 10 µM
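Further: spheroids exposed to compounds for one week before readout.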
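Wherever viability, T/C is given: percent viability relative to DMSO vehicle wells taken as 100%.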

Question: `CCc1cc2c(N3CCc4c(cc(Cn5ccnc5)cc4-c4cn(C)nc4C(F)(F)F)C3=O)cc(C)nc2c(OC)n1` + Nc1ccc(C#CCN(C(=O)Cc2ncc(C(F)(F)F)cc2C(F)(F)F)c2ccc(F)cc2)nn1 was tested. Which IC50 (second compound 0.0316 µM) did it give?
Answer: 2530 nM

Question: And the IC50 (second compound 0.1 µM)?
Answer: 2960 nM

Question: And the IC50 (second compound 0.316 µM)?
Answer: 2460 nM

Question: What about the IC50 (second compound 1 µM) of the same compound?
Answer: 2410 nM

Question: What about the IC50 (second compound 3.16 µM) of the same compound?
Answer: 2620 nM

Question: And the IC50 (second compound 10 µM)?
Answer: 1420 nM

Question: What about the viability, T/C [1] of the same compound?
Answer: 106%

Question: What about the viability, T/C [2] of the same compound?
Answer: 108%

Question: What about the viability, T/C [3] of the same compound?
Answer: 80.2%

Question: What about the viability, T/C [4] of the same compound?
Answer: 62%

Question: What about the viability, T/C [5] of the same compound?
Answer: 51%

Question: And the viability, T/C [6]?
Answer: 38.5%

Question: What about the viability, T/C [7] of the same compound?
Answer: 123%

Question: And the viability, T/C [8]?
Answer: 101%

Question: And the viability, T/C [9]?
Answer: 68.7%

Question: What about the viability, T/C [10] of the same compound?
Answer: 60.9%

Question: What about the viability, T/C [11] of the same compound?
Answer: 54.3%

Question: What about the viability, T/C [12] of the same compound?
Answer: 40%

Question: And the viability, T/C [13]?
Answer: 105%

Question: And the viability, T/C [14]?
Answer: 111%

Question: And the viability, T/C [15]?
Answer: 75.8%

Question: And the viability, T/C [16]?
Answer: 61.5%

Question: And the viability, T/C [17]?
Answer: 51.5%

Question: What about the viability, T/C [18] of the same compound?
Answer: 40.1%

Question: What about the viability, T/C [19] of the same compound?
Answer: 115%

Question: What about the viability, T/C [20] of the same compound?
Answer: 108%

Question: And the viability, T/C [21]?
Answer: 91.5%

Question: And the viability, T/C [22]?
Answer: 57%

Question: What about the viability, T/C [23] of the same compound?
Answer: 51.8%

Question: And the viability, T/C [24]?
Answer: 41.9%

Question: And the viability, T/C [25]?
Answer: 112%

Question: What about the viability, T/C [26] of the same compound?
Answer: 111%

Question: And the viability, T/C [27]?
Answer: 78.2%

Question: What about the viability, T/C [28] of the same compound?
Answer: 63.6%

Question: And the viability, T/C [29]?
Answer: 51.1%

Question: What about the viability, T/C [30] of the same compound?
Answer: 38.4%

Question: And the viability, T/C [31]?
Answer: 99.4%

Question: What about the viability, T/C [32] of the same compound?
Answer: 98.2%

Question: And the viability, T/C [33]?
Answer: 74.9%

Question: And the viability, T/C [34]?
Answer: 53.3%

Question: What about the viability, T/C [35] of the same compound?
Answer: 45.8%

Question: What about the viability, T/C [36] of the same compound?
Answer: 41.4%

Question: How did the IC50 (second compound 0.0316 µM) turn out when `O=C(Nc1ccc(O)c(NS(=O)(=O)c2ccc(F)cc2)c1)c1ccc(-c2ccccc2)cc1` + Nc1ccc(C#CCN(C(=O)Cc2ncc(C(F)(F)F)cc2C(F)(F)F)c2ccc(F)cc2)nn1 was run?
Answer: 9930 nM

Question: And the IC50 (second compound 0.1 µM)?
Answer: > 10000 nM

Question: And the IC50 (second compound 0.316 µM)?
Answer: > 10000 nM

Question: What about the IC50 (second compound 1 µM) of the same compound?
Answer: > 10000 nM

Question: What about the IC50 (second compound 3.16 µM) of the same compound?
Answer: > 10000 nM

Question: And the IC50 (second compound 10 µM)?
Answer: 6560 nM

Question: And the viability, T/C [1]?
Answer: 108%

Question: What about the viability, T/C [2] of the same compound?
Answer: 105%

Question: And the viability, T/C [3]?
Answer: 105%

Question: What about the viability, T/C [4] of the same compound?
Answer: 104%

Question: And the viability, T/C [5]?
Answer: 119%

Question: And the viability, T/C [6]?
Answer: 49.7%

Question: What about the viability, T/C [7] of the same compound?
Answer: 108%

Question: What about the viability, T/C [8] of the same compound?
Answer: 105%

Question: And the viability, T/C [9]?
Answer: 114%

Question: What about the viability, T/C [10] of the same compound?
Answer: 105%

Question: And the viability, T/C [11]?
Answer: 100%

Question: And the viability, T/C [12]?
Answer: 56%

Question: What about the viability, T/C [13] of the same compound?
Answer: 108%

Question: What about the viability, T/C [14] of the same compound?
Answer: 107%

Question: And the viability, T/C [15]?
Answer: 103%

Question: What about the viability, T/C [16] of the same compound?
Answer: 104%

Question: What about the viability, T/C [17] of the same compound?
Answer: 96.6%

Question: And the viability, T/C [18]?
Answer: 72.6%

Question: What about the viability, T/C [19] of the same compound?
Answer: 105%

Question: And the viability, T/C [20]?
Answer: 106%

Question: And the viability, T/C [21]?
Answer: 106%

Question: What about the viability, T/C [22] of the same compound?
Answer: 101%

Question: What about the viability, T/C [23] of the same compound?
Answer: 91.2%

Question: What about the viability, T/C [24] of the same compound?
Answer: 54%

Question: What about the viability, T/C [25] of the same compound?
Answer: 106%

Question: What about the viability, T/C [26] of the same compound?
Answer: 103%

Question: And the viability, T/C [27]?
Answer: 102%

Question: And the viability, T/C [28]?
Answer: 102%

Question: What about the viability, T/C [29] of the same compound?
Answer: 76.5%

Question: And the viability, T/C [30]?
Answer: 50.7%

Question: What about the viability, T/C [31] of the same compound?
Answer: 93.9%

Question: And the viability, T/C [32]?
Answer: 84.2%

Question: And the viability, T/C [33]?
Answer: 93.2%

Question: What about the viability, T/C [34] of the same compound?
Answer: 105%

Question: And the viability, T/C [35]?
Answer: 85.8%

Question: What about the viability, T/C [36] of the same compound?
Answer: 29.3%
